Earlier results, collected in US20110226621A1, “TARGET RECOGNITION MOLECULE AND A METHOD FOR IMMOBILIZING THE SAME” (Sharp Kabushiki Kaisha, priority 2009, published 2011).
Like-named read-outs stand apart in the source and are kept apart here.

Settings: individual amino acid
[1] = Table 1 repeated in Example 1-1

isoelectric point (Table 1 in summary)	isoelectric point [1]	SMILES
6.00	6.00	C[C@H](N)C(=O)O [alanine]
5.41	5.41	NC(=O)C[C@H](N)C(=O)O [asparagine]
2.77	2.77	N[C@@H](CC(=O)O)C(=O)O [aspartic acid]
5.05	5.05	N[C@@H](CS)C(=O)O [cysteine]
3.22	3.22	N[C@@H](CCC(=O)O)C(=O)O [glutamic acid]
5.97	5.97	NCC(=O)O [glycine]
6.05	6.05	CC[C@H](C)[C@H](N)C(=O)O [isoleucine]
5.74	5.74	CSCC[C@H](N)C(=O)O [methionine]
5.48	5.48	N[C@@H](Cc1ccccc1)C(=O)O [phenylalanine]
6.30	6.30	O=C(O)[C@@H]1CCCN1 [proline]
5.68	5.68	N[C@@H](CO)C(=O)O [serine]
6.16	6.16	C[C@@H](O)[C@H](N)C(=O)O [threonine]
5.66	5.66	N[C@@H](Cc1ccc(O)cc1)C(=O)O [tyrosine]
5.96	5.96	CC(C)[C@H](N)C(=O)O [valine]

SMILES	isoelectric point (Table 1 in summary)	isoelectric point [1]
N=C(N)NCCC[C@H](N)C(=O)O [arginine]	10.76	10.76
N[C@@H](Cc1c[nH]cn1)C(=O)O [histidine]	7.59	7.59
NCCCC[C@H](N)C(=O)O [lysine]	9.75	9.75
N[C@@H](Cc1c[nH]c2ccccc12)C(=O)O [tryptophan]	5.89	5.89
